Assay results reported in PubChem BioAssay (NCI).
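Values below derive from 48-hour exposures of cells grown in 96-well plates, with endpoints linearly interpolated between the two concentrations bracketing the appropriate inhibition level. GI50 is the concentration that inhibits growth by half. Definition used: TGI = concentration required for complete inhibition of growth.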 Where a SMILES comes first, the peptide text is derived from it. [ ]: non-standard residue; d: D form. The star is where a group is joined. ξ: configuration not given here. ξNMe2Val = CC(C)C(C(=O)*)N(C)C; NMeV = CN[CH](C(=O)O)C(C)C; NHBn = c1ccc(CN*)cc1

Legend:
Experiment in all cases: NCI-60 cell line screen, 48 h
CAKI-1 renal = system: CAKI-1 renal
SF-268 CNS = system: SF-268 CNS
MALME-3M melanoma = system: MALME-3M melanoma
SW-620 colon = system: SW-620 colon
CCRF-CEM leukemia = system: CCRF-CEM leukemia
KM12 colon = system: KM12 colon
HOP-62 NSCLC = system: HOP-62 NSCLC
BT-549 breast = system: BT-549 breast
UACC-62 melanoma = system: UACC-62 melanoma
NCI-H460 lung = system: NCI-H460 lung
SNB-19 CNS = system: SNB-19 CNS
IGROV1 ovarian = system: IGROV1 ovarian
ACHN renal = system: ACHN renal
SK-OV-3 ovarian = system: SK-OV-3 ovarian
HL-60(TB) leukemia = system: HL-60(TB) leukemia
UO-31 renal = system: UO-31 renal
NCI-H522 lung = system: NCI-H522 lung
786-0 renal = system: 786-0 renal
NCI-H23 lung = system: NCI-H23 lung
SK-MEL-5 melanoma = system: SK-MEL-5 melanoma
NCI/ADR-RES ovarian = system: NCI/ADR-RES ovarian
LOX IMVI melanoma = system: LOX IMVI melanoma
DU-145 prostate = system: DU-145 prostate
RXF 393 renal = system: RXF 393 renal
U251 CNS = system: U251 CNS
SNB-75 CNS = system: SNB-75 CNS
MDA-N = system: MDA-N
RPMI-8226 leukemia = system: RPMI-8226 leukemia
EKVX NSCLC = system: EKVX NSCLC
COLO 205 colon = system: COLO 205 colon
A549 NSCLC = system: A549 NSCLC
OVCAR-4 ovarian = system: OVCAR-4 ovarian
MDA-MB-231 breast = system: MDA-MB-231 breast
OVCAR-5 ovarian = system: OVCAR-5 ovarian
PC-3 prostate = system: PC-3 prostate
OVCAR-8 ovarian = system: OVCAR-8 ovarian
HS 578T breast = system: HS 578T breast
OVCAR-3 ovarian = system: OVCAR-3 ovarian
HCT-116 colon = system: HCT-116 colon
SK-MEL-28 melanoma = system: SK-MEL-28 melanoma
K-562 leukemia = system: K-562 leukemia
HT29 colon = system: HT29 colon
SN12C renal = system: SN12C renal
MCF7 breast = system: MCF7 breast
TK-10 renal = system: TK-10 renal
HCT-15 colon = system: HCT-15 colon
SF-295 CNS = system: SF-295 CNS
UACC-257 melanoma = system: UACC-257 melanoma
SK-MEL-2 melanoma = system: SK-MEL-2 melanoma
M14 melanoma = system: M14 melanoma
HCC-2998 colon = system: HCC-2998 colon
MDA-MB-435 = system: MDA-MB-435
NCI-H226 lung = system: NCI-H226 lung

How did the TGI (CAKI-1 renal) turn out when `CC(C)C(NC(=O)C(C(C)C)N(C)C)C(=O)N(C)C(C(=O)N1CCCC1C(=O)N1CCCC1C(=O)NCc1ccccc1)C(C)C` (configuration not stated) (ξNMe2Val-V[NMeV]PP-NHBn; configuration not given here) was run?
The TGI was > 100 µM.

What about the TGI (SF-268 CNS) of the same compound?
Its TGI is > 100 µM.

What about the TGI (MALME-3M melanoma) of the same compound?
Its TGI is > 100 µM.

And the TGI (SW-620 colon)?
The TGI was > 100 µM.

What about the TGI (CCRF-CEM leukemia) of the same compound?
The TGI was 0.00144 µM.

And the TGI (KM12 colon)?
Its TGI is < 0.0001 µM.

What about the TGI (HOP-62 NSCLC) of the same compound?
The TGI was > 100 µM.

What about the TGI (BT-549 breast) of the same compound?
The TGI was 0.0788 µM.

And the TGI (UACC-62 melanoma)?
Its TGI is 0.0105 µM.

What about the TGI (NCI-H460 lung) of the same compound?
Its TGI is 0.0227 µM.

What about the TGI (SNB-19 CNS) of the same compound?
The TGI was > 100 µM.

What about the TGI (IGROV1 ovarian) of the same compound?
Its TGI is > 100 µM.

What about the TGI (ACHN renal) of the same compound?
Its TGI is > 100 µM.

And the TGI (SK-OV-3 ovarian)?
The TGI was > 100 µM.

What about the TGI (HL-60(TB) leukemia) of the same compound?
Its TGI is < 0.0001 µM.

And the TGI (UO-31 renal)?
The TGI was > 100 µM.

What about the TGI (NCI-H522 lung) of the same compound?
Its TGI is 0.418 µM.

What about the TGI (786-0 renal) of the same compound?
The TGI was > 100 µM.

And the TGI (NCI-H23 lung)?
Its TGI is > 100 µM.

What about the TGI (SK-MEL-5 melanoma) of the same compound?
Its TGI is 0.000265 µM.

What about the GI50 (NCI/ADR-RES ovarian) of the same compound?
The GI50 was 0.264 µM.

What about the TGI (NCI/ADR-RES ovarian) of the same compound?
Its TGI is 7.39 µM.

And the TGI (LOX IMVI melanoma)?
Its TGI is 0.000253 µM.

And the TGI (DU-145 prostate)?
The TGI was 0.0117 µM.

And the TGI (RXF 393 renal)?
Its TGI is > 100 µM.

What about the TGI (U251 CNS) of the same compound?
Its TGI is 3.11 µM.

What about the TGI (SNB-75 CNS) of the same compound?
The TGI was 53.8 µM.

And the TGI (MDA-N)?
The TGI was < 0.0001 µM.

What about the TGI (RPMI-8226 leukemia) of the same compound?
Its TGI is > 100 µM.

What about the GI50 (EKVX NSCLC) of the same compound?
The GI50 was < 0.0001 µM.

What about the TGI (EKVX NSCLC) of the same compound?
The TGI was > 100 µM.

And the TGI (COLO 205 colon)?
Its TGI is 0.00016 µM.

And the TGI (A549 NSCLC)?
The TGI was > 100 µM.

What about the TGI (OVCAR-4 ovarian) of the same compound?
Its TGI is > 100 µM.

What about the TGI (MDA-MB-231 breast) of the same compound?
The TGI was 0.000242 µM.

What about the TGI (OVCAR-5 ovarian) of the same compound?
Its TGI is 0.206 µM.

How did the TGI (PC-3 prostate) turn out when `COC(=O)[C@]12CC3C=CC1N(C3)C(CBr)c1c2n(S(=O)(=O)c2ccccc2)c2ccccc12` (some centres not stated) was run?
The TGI was > 100 µM.

What about the TGI (CAKI-1 renal) of the same compound?
The TGI was > 100 µM.

And the TGI (OVCAR-8 ovarian)?
Its TGI is > 100 µM.

What about the TGI (MALME-3M melanoma) of the same compound?
Its TGI is > 100 µM.

And the TGI (HS 578T breast)?
Its TGI is > 100 µM.

And the TGI (OVCAR-3 ovarian)?
The TGI was > 100 µM.

And the TGI (HCT-116 colon)?
Its TGI is > 100 µM.

And the TGI (SW-620 colon)?
Its TGI is > 100 µM.

What about the TGI (CCRF-CEM leukemia) of the same compound?
Its TGI is > 100 µM.

What about the TGI (SK-MEL-28 melanoma) of the same compound?
Its TGI is > 100 µM.

What about the TGI (KM12 colon) of the same compound?
The TGI was > 100 µM.

And the TGI (HOP-62 NSCLC)?
The TGI was > 100 µM.

And the TGI (K-562 leukemia)?
Its TGI is 0.314 µM.

What about the TGI (HT29 colon) of the same compound?
Its TGI is > 100 µM.

What about the TGI (BT-549 breast) of the same compound?
Its TGI is > 100 µM.

What about the TGI (UACC-62 melanoma) of the same compound?
Its TGI is > 100 µM.

What about the TGI (NCI-H460 lung) of the same compound?
Its TGI is > 100 µM.

And the TGI (SN12C renal)?
Its TGI is > 100 µM.

What about the TGI (IGROV1 ovarian) of the same compound?
Its TGI is > 100 µM.

What about the TGI (ACHN renal) of the same compound?
The TGI was > 100 µM.

And the TGI (SK-OV-3 ovarian)?
Its TGI is > 100 µM.

And the TGI (HL-60(TB) leukemia)?
The TGI was > 100 µM.

And the TGI (MCF7 breast)?
The TGI was > 100 µM.

And the TGI (UO-31 renal)?
Its TGI is > 100 µM.

And the TGI (NCI-H522 lung)?
The TGI was > 100 µM.

What about the TGI (786-0 renal) of the same compound?
The TGI was > 100 µM.

What about the TGI (NCI-H23 lung) of the same compound?
The TGI was > 100 µM.

What about the TGI (TK-10 renal) of the same compound?
The TGI was > 100 µM.

And the TGI (SK-MEL-5 melanoma)?
The TGI was > 100 µM.

And the TGI (HCT-15 colon)?
The TGI was > 100 µM.

What about the TGI (NCI/ADR-RES ovarian) of the same compound?
Its TGI is > 100 µM.

And the TGI (LOX IMVI melanoma)?
The TGI was > 100 µM.

What about the TGI (DU-145 prostate) of the same compound?
The TGI was > 100 µM.

And the TGI (SF-295 CNS)?
Its TGI is > 100 µM.

What about the TGI (UACC-257 melanoma) of the same compound?
The TGI was > 100 µM.

What about the TGI (RXF 393 renal) of the same compound?
Its TGI is > 100 µM.

And the TGI (U251 CNS)?
The TGI was > 100 µM.

And the TGI (SNB-75 CNS)?
The TGI was 86.2 µM.

What about the TGI (MDA-N) of the same compound?
Its TGI is > 100 µM.

What about the TGI (RPMI-8226 leukemia) of the same compound?
Its TGI is 23.5 µM.

What about the TGI (EKVX NSCLC) of the same compound?
Its TGI is > 100 µM.

And the TGI (SK-MEL-2 melanoma)?
The TGI was > 100 µM.

And the TGI (M14 melanoma)?
Its TGI is > 100 µM.

And the TGI (COLO 205 colon)?
Its TGI is > 100 µM.

And the TGI (A549 NSCLC)?
Its TGI is > 100 µM.

What about the TGI (HCC-2998 colon) of the same compound?
Its TGI is > 100 µM.

What about the TGI (OVCAR-4 ovarian) of the same compound?
Its TGI is > 100 µM.

And the TGI (MDA-MB-435)?
The TGI was > 100 µM.

And the TGI (NCI-H226 lung)?
Its TGI is > 100 µM.

And the TGI (MDA-MB-231 breast)?
The TGI was > 100 µM.

And the TGI (OVCAR-5 ovarian)?
The TGI was > 100 µM.
